Experimental data reported in patent US20050074879A1, “Antisense oligonucleotide modulation of STAT3 expression” (priority 2000, published 2005).
Oligonucleotides are written 5' to 3', each unit as a sugar letter and its base; * is a phosphorothioate linkage, no mark a phosphodiester; rarer units and linkages stand in square brackets, end groups in braces. Plain capitals give the bases only. e = 2'-O-(2-methoxyethyl) (MOE); [5mC] = 5-methylcytosine; d = 2'-deoxy (DNA)

Each substance was assayed on Human STAT3 mRNA (assay: Inhibition of human STAT3 mRNA levels in A549 cells, 75 nM, real-time PCR (Table 13)). Conditions: 75 nM oligonucleotide with LIPOFECTIN, real-time PCR PPS 199, percent inhibition relative to untreated control cells, average of 2 experiments.
Format: cell-based
Description: Oligonucleotide activity is assayed by quantitation of STAT3 mRNA levels by real-time PCR (RT-PCR) using the ABI PRISMS 7700 Sequence Detection System (PE-Applied Biosystems, Foster City, Calif.) according to manufacturer's instructions. This is a closed-tube, non-gel-based, fluorescence detection system which allows high-throughput quantitation of polymerase chain reaction (PCR) products in real-time. As opposed to standard PCR, in which amplification products are quantitated after the PCR is completed, products in RT-PCR are quantitated as they accumulate. This is accomplished by including in the PCR reaction an oligonucleotide probe that anneals specifically between the forward and reverse PCR primers, and contains two fluorescent dyes. A reporter dye (e.g., JOE or FAM, PE-Applied Biosystems, Foster City, Calif.) is attached to the 5′ end of the probe and a quencher dye (e.g., TAMRA, PE-Applied Biosystems, Foster City, Calif.) is attached to the 3′ end of the probe. When the probe and dyes are intact, reporter dye emission is quenched by the proximity of the 3′ quencher dye. During amplification, annealing of the probe to the target sequence creates a substrate that can be cleaved by the 5′-exonuclease activity of Taq polymerase. […] With each cycle, additional reporter dye molecules are cleaved from their respective probes, and the fluorescence intensity is monitored at regular (six-second) intervals by laser optics built into the ABI PRISM™ 7700 Sequence Detection System. In each assay, a series of parallel reactions containing serial dilutions of mRNA from untreated control samples generates a standard curve that is used to quantitate the percent inhibition after antisense oligonucleotide treatment of test samples.
RT-PCR reagents are obtained from PE-Applied Biosystems, Foster City, Calif. RT-PCR reactions are carried out by adding 25 l PCR cocktail (1× TAQMAN7 buffer A, 5.5 mM MgCl2, 300 µM each of DATP, dCTP and dGTP, 600 µM of dUTP, 100 nM each of forward primer, reverse primer, and probe, 20 U RNAse inhibitor, 1.25 units AMPLITAQ GOLD7, and 12.5 U MuLV reverse transcriptase) to 96 well plates containing 25 l poly(A) mRNA solution. The RT reaction is carried out by incubation for 30 minutes at 48° C. following a 10 minute incubation at 95° C. to activate the AMPLITAQ GOLD7, 40 cycles of a two-step PCR protocol are carried out: 95° C. for 15 seconds (denaturation) followed by 60° C. for 1.5 minutes (annealing/extension).
The compounds were analyzed for their effect on STAT3 mRNA levels in A549 cells. The human lung carcinoma cell line A549 was obtained from the American Type Culture Collection (ATCC) (Manassas, Va.). A549 cells were routinely cultured in DMEM basal media (Invitrogen Corporation, Carlsbad, Calif.) supplemented with 10% fetal calf serum (Invitrogen Corporation, Carlsbad, Calif.), 100 units/mL penicillin, and 100 ug/mL streptomycin (Invitrogen Corporation, Carlsbad, Calif.). Cells were routinely passaged by trypsinization and dilution when they reached 90% confluence.
When cells reached 65-75% confluency, they were treated with oligonucleotide. For cells grown in 96-well plates, wells were washed once with […] OPTI-MEM-1 reduced-serum medium (Invitrogen Corporation, Carlsbad, Calif.) and then treated with 130 µL of OPTI-MEM-1 containing […] LIPOFECTIN (Invitrogen Corporation, Carlsbad, Calif.) and 75 nM of the compounds in Table 13. Cells were treated and data were obtained in duplicate. Untreated cells served as controls. After 4-7 hours of treatment at 37° C., the medium was replaced with fresh medium. Cells were harvested 16-24 hours after oligonucleotide treatment. STAT3 mRNA levels in A549 cells were quantitated by real-time PCR as described by other methods herein.
Probes and primers to human STAT3 were designed to hybridize to a human STAT3 sequence, using published sequence information (incorporated herein as SEQ ID NO: 1). For STAT 3 the PCR primers were: • forward primer: […]

Substance | % Inhib (inhibition of human STAT 3 mRNA levels) [%]
337318 (antisense eG*eG*eT*e[5mC]*eT*d[5mC]*dT*dA*dG*dG*dT*d[5mC]*dA*dA*dT*e[5mC]*eT*eT*eG*eA) [compound 337318] | 74
337319 (antisense eA*eA*eG*eG*eA*dG*dT*dG*dG*dG*dT*d[5mC]*dT*d[5mC]*dT*eA*eG*eG*eT*e[5mC]) [compound 337319] | 38
337320 (antisense e[5mC]*eT*eG*eG*e[5mC]*dA*dA*dG*dG*dA*dG*dT*dG*dG*dG*eT*e[5mC]*eT*e[5mC]*eT) [compound 337320] | 74
337321 (antisense eA*e[5mC]*e[5mC]*eA*e[5mC]*dA*dA*d[5mC]*dT*dG*dG*d[5mC]*dA*dA*dG*eG*eA*eG*eT*eG) [compound 337321] | 80
337322 (antisense eT*e[5mC]*eT*eG*eA*d[5mC]*dA*dG*dA*dT*dG*dT*dT*dG*dG*eA*eG*eA*eT*e[5mC]) [compound 337322] | 69
337323 (antisense eT*eG*eG*e[5mC]*eA*dT*d[5mC]*dT*dG*dA*d[5mC]*dA*dG*dA*dT*eG*eT*eT*eG*eG) [compound 337323] | 79
337324 (antisense eG*e[5mC]*eA*eT*eT*dT*dG*dG*d[5mC]*dA*dT*d[5mC]*dT*dG*dA*e[5mC]*eA*eG*eA*eT) [compound 337324] | 79
337325 (antisense eT*eT*e[5mC]*eT*eT*dG*dG*dG*dA*dT*dT*dG*dT*dT*dG*eG*eT*e[5mC]*eA*eG) [compound 337325] | 75
337326 (antisense eG*eT*e[5mC]*eA*eG*d[5mC]*dT*dG*d[5mC]*dT*d[5mC]*dG*dA*dT*dG*e[5mC]*eT*e[5mC]*eA*eG) [compound 337326] | 78
337327 (antisense eT*e[5mC]*e[5mC]*e[5mC]*eA*dA*dG*dA*dG*dT*dT*dT*d[5mC]*dT*d[5mC]*eT*eG*e[5mC]*e[5mC]*eA) [compound 337327] | 84
337328 (antisense e[5mC]*eA*eT*eG*eT*dG*dA*dT*d[5mC]*dT*dG*dA*d[5mC]*dA*d[5mC]*e[5mC]*e[5mC]*eT*eG*eA) [compound 337328] | 85
337329 (antisense eT*eA*eG*e[5mC]*e[5mC]*d[5mC]*dA*dT*dG*dT*dG*dA*dT*d[5mC]*dT*eG*eA*e[5mC]*eA*e[5mC]) [compound 337329] | 88
337330 (antisense eG*e[5mC]*e[5mC]*eA*eT*dG*dT*dT*dT*dT*d[5mC]*dT*dT*dT*dG*e[5mC]*eA*eA*eA*eA) [compound 337330] | 59
337331 (antisense e[5mC]*e[5mC]*eT*eT*eG*d[5mC]*d[5mC]*dA*dG*d[5mC]*d[5mC]*dA*dT*dG*dT*eT*eT*eT*e[5mC]*eT) [compound 337331] | 88
337334 (antisense e[5mC]*e[5mC]*e[5mC]*eA*eG*dA*dA*dG*dG*dA*dG*dA*dA*dG*d[5mC]*e[5mC]*e[5mC]*eT*eT*eG) [compound 337334] | 85
337335 (antisense eT*e[5mC]*e[5mC]*eA*eG*d[5mC]*d[5mC]*dA*dG*dA*d[5mC]*d[5mC]*d[5mC]*dA*dG*eA*eA*eG*eG*eA) [compound 337335] | 86
337336 (antisense eT*e[5mC]*eT*eT*eT*dG*d[5mC]*dT*dG*d[5mC]*dT*dT*dT*d[5mC]*dA*e[5mC]*eT*eG*eA*eA) [compound 337336] | 79

Substance | % Inhib (inhibition of human STAT 3 mRNA levels) [%]
337337 (antisense eA*eT*eG*eT*eT*dG*dT*dT*d[5mC]*dA*dG*d[5mC]*dT*dG*d[5mC]*eT*eG*e[5mC]*eT*eT) [compound 337337] | 76
337338 (antisense eA*eT*eG*eA*e[5mC]*dA*dT*dG*dT*dT*dG*dT*dT*d[5mC]*dA*eG*e[5mC]*eT*eG*e[5mC]) [compound 337338] | 80
337339 (antisense eA*eG*e[5mC]*eA*eA*dA*dT*dG*dA*d[5mC]*dA*dT*dG*dT*dT*eG*eT*eT*e[5mC]*eA) [compound 337339] | 84
337340 (antisense eA*eT*eT*eT*e[5mC]*dA*dG*d[5mC]*dA*dA*dA*dT*dG*dA*d[5mC]*eA*eT*eG*eT*eT) [compound 337340] | 72
337341 (antisense eT*eG*eA*eT*eG*dA*dT*dT*dT*d[5mC]*dA*dG*d[5mC]*dA*dA*eA*eT*eG*eA*e[5mC]) [compound 337341] | 74
337342 (antisense eT*eT*eA*eT*eA*dG*d[5mC]*d[5mC]*d[5mC]*dA*dT*dG*dA*dT*dG*eA*eT*eT*eT*e[5mC]) [compound 337342] | 81
337343 (antisense eT*eG*eA*eT*e[5mC]*dT*dT*dA*dT*dA*dG*d[5mC]*d[5mC]*d[5mC]*dA*eT*eG*eA*eT*eG) [compound 337343] | 84
337345 (antisense eG*eG*eT*eA*eG*d[5mC]*dA*dT*d[5mC]*d[5mC]*dA*dT*dG*dA*dT*e[5mC]*eT*eT*eA*eT) [compound 337345] | 86
337346 (antisense eA*eA*eT*eG*eT*d[5mC]*dA*dG*dG*dA*dT*dA*dG*dA*dG*eA*eT*eA*eG*eA) [compound 337346] | 55
337347 (antisense eG*e[5mC]*e[5mC]*eT*e[5mC]*d[5mC]*dT*d[5mC]*d[5mC]*dT*dT*dG*dG*dG*dA*eA*eT*eG*eT*e[5mC]) [compound 337347] | 88
337349 (antisense eT*eA*e[5mC]*eT*eT*dT*d[5mC]*d[5mC]*dG*dA*dA*dT*dG*d[5mC]*d[5mC]*eT*e[5mC]*e[5mC]*eT*e[5mC]) [compound 337349] | 65
337350 (antisense eG*eA*e[5mC]*eA*eA*dT*dA*d[5mC]*dT*dT*dT*d[5mC]*d[5mC]*dG*dA*eA*eT*eG*e[5mC]*e[5mC]) [compound 337350] | 84
337351 (antisense e[5mC]*eT*eA*e[5mC]*e[5mC]*dT*dG*dG*dG*dT*d[5mC]*dA*dG*d[5mC]*dT*eT*e[5mC]*eA*eG*eG) [compound 337351] | 74
337352 (antisense eA*eT*eA*eA*eA*d[5mC]*dT*dT*dG*dG*dT*d[5mC]*dT*dT*d[5mC]*eA*eG*eG*eT*eA) [compound 337352] | 80
337353 (antisense eG*eT*e[5mC]*eG*eT*dT*dG*dG*dT*dG*dT*d[5mC]*dA*d[5mC]*dA*e[5mC]*eA*eG*eA*eT) [compound 337353] | 81
337354 (antisense eT*eG*e[5mC]*eA*eG*dG*dT*d[5mC]*dG*dT*dT*dG*dG*dT*dG*eT*e[5mC]*eA*e[5mC]*eA) [compound 337354] | 62
337355 (antisense eA*eT*eT*eG*e[5mC]*dT*dG*d[5mC]*dA*dG*dG*dT*d[5mC]*dG*dT*eT*eG*eG*eT*eG) [compound 337355] | 61
